US8207156B2, “Substituted pyrazoline compounds, their preparation and use as medicaments” (Laboratorios Del Dr. Esteve, S.A., priority 2005, dated 2012)
Where a name gives a salt, the structure may show the parent alone.

Target: T1, CB1 receptor (UniProt P20272)
T1 construct: other: compound at 10^−7 M; radioligand [3H]-CP55940; other: compound at 10^−8 M
Test: In-vitro determination of affinity to CB1/CB2-receptors (radioligand [3H]-CP55940 binding)
Conditions: for Inhibition [%], 10^−7 M: compound at 10^−7 M; for Inhibition [%], 10^−8 M: compound at 10^−8 M
Protocol: The in-vitro determination of the affinity of the inventive substituted pyrazoline compounds to CB1/CB2-Rezeptors is carried out as described in the publication of Ruth A. Ross, Heather C. Brockie et al., “Agonist-inverse agonist characterization at CB1 and CB2 cannabinoid receptors of L-759633, L759656 and AM630”, British Journal of Pharmacology, 126, 665-672, (1999), whereby the transfected human CB1 and CB2 receptors of Receptor Biology, Inc. are used. The radioligand used for both receptors is [^3H]-CP55940. The respective parts of the description is hereby incorporated by reference and forms part of the present disclosure.
Binding affinity to CB1 receptor was evaluated according to a modification of the method described by Govaerts et al., Eur J Pharmac Sci 23, 233-243 (2004). The respective parts of the description is hereby incorporated by reference and forms part of the present disclosure.
Briefly, cerebellum from male wistar rats (250-300 g) were carefully dissected on ice and homogenates were prepared with Potter-Helveheim in a cold 50 mM Tris-HCl solution containing 5 mM MgCl2, 1 mM EDTA and 0.25 M sucrose, pH 7.4. The suspension was centrifuged at 1,000×g for 5 minutes. The supernatants were collected and centrifuged 50,000×g for 15 minutes. The resulting pellets were then resuspended in Tris-HCl buffer without sucrose, homogenized and incubated for 15 min at 37° C. in an orbital shaker bath and centrifuged again at 50,000×g for 15 min. Pellets were weighted, resuspended in Tris-HCl buffer without sucrose, homogenized with Ultraturrax at 13,500 rpm for 3×5 seconds and alicuoted in 0.9 ml volumes in Eppendorf tubes. Alicuotes were centrifuged at 20,800×g for 5 minutes, supernatants discarded and pellets were frozen at −80° C. until use. Total protein concentration was determined using the Bio-Rad Lowry method based kit. Competitive binding experiments were performed in presence of 1 nM [^3H]-CP 55,940 in siliconized glass tubes containing 100 μg protein/tube resuspended in 1 ml final volume of 50 mM Tris-HCl, 5 mM MgCl2, 1 mM EDTA, 0.5% (w/v) bovine serum albumin, pH 7.4. Compounds were present at various concentrations and the non specific binding was determined in the presence of 10 μM HU-210. After 1 hour incubation at 30° C., the suspension was rapidly filtered through 0.5% PEI pre-treated GF/B fiber filters on a 96-well harvester and washed 3 times with 3 ml ice-cold binding buffer without bovine serum albumin. Radioactivity on filters was measured with Wallac Winspectral 1414 counter by liquid scintillation in 6 ml Ecoscint H (National Diagnostics, U.K.). Assays were made in triplicates.
Binding data were analyzed by non-linear regression with the software GraphPad Prism Version 3.03.

| SMILES | Inhibition [%], 10^−7 M [%] | Inhibition [%], 10^−8 M [%] |
| --- | --- | --- |
| Cl.O=C(NN1CCCCCCC1)C1=NN(c2ccc(Cl)cc2Cl)[C@H](c2ccc(Cl)cc2)C1 [Example 177, (S)-5-(4-Chloro-phenyl)-1-(2,4-dichloro-phenyl)-4,5-dihydro-1H-pyrazole-3-carboxylic acid azocan-1-ylamide hydrochloride] | 22.2 | −5.4 |
| O=C(NCCC1CCCC1)C1=NN(c2ccc(Cl)cc2Cl)C(c2ccc(Cl)cc2)C1 (centres unmarked) [Example 87, 5-(4-Chloro-phenyl)-1-(2,4-dichloro-phenyl)-4,5-dihydro-1H-pyrazole-3-carboxylic acid (2-cyclopentyl-ethyl)-amide] | 15.2 | −2.4 |
| Cl.O=C(NN1CCCCC1)C1=NN(c2ccc(Cl)cc2Cl)C(c2ccc(O)cc2)C1 (centres unmarked) [Example 172, 1-(2,4-Dichloro-phenyl)-5-(4-hydroxy-phenyl)-4,5-dihydro-1H-pyrazole-3-carboxylic acid piperidin-1-ylamide hydrochloride] | 1.4 | 5.6 |
| CN1CCN(C(=O)C2=NN(c3ccc(Cl)cc3Cl)C(c3ccc(Cl)cc3)C2)CC1.Cl (centres unmarked) [Example 195, [5-(4-Chloro-phenyl)-1-(2,4-dichloro-phenyl)-4,5-dihydro-1H-pyrazole-3-yl]-(4-methyl-piperazin-1-yl)-methanone hydrochloride] | 5.8 | 4.7 |
| Cl.O=C(NN1CCCCCCC1)C1=NN(c2ccc(Cl)cc2Cl)C(c2ccc(Cl)cc2)C1 (centres unmarked) [Example 145, 5-(4-Chloro-phenyl)-1-(2,4-dichloro-phenyl)-4,5-dihydro-1H-pyrazole-3-carboxylic acid azocan-1-ylamide hydrochloride] | 57.6 | 12.3 |
| COC[C@H]1CCCN1NC(=O)C1=NN(c2ccc(Cl)cc2Cl)C(c2ccc(Cl)cc2)C1 (some centres unmarked) [Example 13, 5-(4-Chloro-phenyl)-1-(2,4-dichloro-phenyl)-4,5-dihydro-1H-pyrazole-3-carboxylic acid (2-methoxymethyl-pyrrolidin-1-yl)-amide] | 31.8 | 14.3 |
| COc1ccc(C2CC(C(=O)NC3CCCCCC3)=NN2c2ccc(Cl)cc2Cl)cc1 (centres unmarked) [Example 132, 5-(4-methoxyphenyl)-1-(2,4-dichloro-phenyl)-4,5-dihydro-1H-pyrazole-3-carboxylic acid cycloheptylamide] | 37.8 | 18.2 |
| Cl.O=C(NN1CCCCCC1)C1=NN(c2ccc(Cl)cc2Cl)[C@H](c2ccc(Cl)cc2)C1 [Example 183, (S)-5-(4-Chloro-phenyl)-1-(2,4-dichloro-phenyl)-4,5-dihydro-1H-pyrazole-3-carboxylic acid azepan-1-ylamide hydrochloride] | 31.9 | 3.2 |
| O=C(NN1CC2CCCC2C1)C1=NN(c2ccc(Cl)cc2Cl)[C@H](c2ccc(Cl)cc2)C1 (stereo partly drawn) [Example 184, (S)-5-(4-Chloro-phenyl)-1-(2,4-dichloro-phenyl)-4,5-dihydro-1H-pyrazole-3-carboxylic acid (hexahydro-cyclopenta[c]pyrrol-2-yl)-amide hydrochloride] | 24.8 | 5.7 |
| Cl.O=C(NN1CCCCCCC1)C1=NN(c2ccc(Cl)cc2Cl)[C@@H](c2ccc(Cl)cc2)C1 [Example 176, (R)-5-(4-Chloro-phenyl)-1-(2,4-dichloro-phenyl)-4,5-dihydro-1H-pyrazole-3-carboxylic acid azocan-1-ylamide hydrochloride] | 71.3 | 29.5 |
| CN(C)CCCNC(=O)C1=NN(c2ccc(Cl)cc2Cl)C(c2ccc(Cl)cc2)C1 (centres unmarked) [Example 73, 5-(4-Chloro-phenyl)-1-(2,4-dichloro-phenyl)-4,5-dihydro-1H-pyrazole-3-carboxylic acid (3-dimethylamino-propyl)-amide] | −18.9 | 15.7 |
| Cl.O=C(NN1CCc2ccccc21)C1=NN(c2ccc(Cl)cc2Cl)[C@H](c2ccc(Cl)cc2)C1 [Example 182, (S)-5-(4-Chloro-phenyl)-1-(2,4-dichloro-phenyl)-4,5-dihydro-1H-pyrazole-3-carboxylic acid (2,3-dihydro-indol-1-yl)-amide hydrochloride] | 31.7 | 18.8 |
| COc1ccc(C2CC(C(=O)NN3CCCCCCC3)=NN2c2ccc(Cl)cc2Cl)cc1 (centres unmarked) [Example 148, 5-(4-methoxy-phenyl)-1-(2,4-dichloro-phenyl)-4,5-dihydro-1H-pyrazole-3-carboxylic acid azocan-1-ylamide] | 80.3 | 56.1 |
| COc1ccc(C2CC(C(=O)O)=NN2c2ccc(Cl)cc2Cl)cc1 (centres unmarked) [Example 127, 1-(2,4-Dichloro-phenyl)-5-(4-methoxy-phenyl)-4,5-dihydro-1H-pyrazole-3-carboxylic acid] | 7.8 | 7.4 |
| O=C(O)C1=NN(c2ccc(Cl)cc2Cl)C(c2ccc(O)cc2)C1 (centres unmarked) [Example 180, 1-(2,4-Dichloro-phenyl)-5-(4-hydroxy-phenyl)-4,5-dihydro-1H-pyrazole-3-carboxylic acid] | 9.3 | 4.7 |
| O=C(NN1CCCCCC1)C1=NN(c2ccc(Cl)cc2Cl)[C@H](c2ccc(Cl)cc2)C1 [Example 185, (S)-5-(4-Chloro-phenyl)-1-(2,4-dichloro-phenyl)-4,5-dihydro-1H-pyrazole-3-carboxylic acid azepan-1-ylamide] | 34.1 | −11.6 |
| Cl.O=C(NN1CCc2ccccc21)C1=NN(c2ccc(Cl)cc2Cl)C(c2ccc(F)cc2)C1 (centres unmarked) [Example 179, 1-(2,4-Dichloro-phenyl)-5-(4-fluoro-phenyl)-4,5-dihydro-1H-pyrazole-3-carboxylic acid (2,3-dihydro-indol-1-yl)-amide hydrochloride] | 33.9 | 11.5 |
| O=C(NC1CCCCCC1)C1=NN(c2ccc(Cl)cc2Cl)[C@H](c2ccc(Cl)cc2)C1 [Example 186, (S)-5-(4-Chloro-phenyl)-1-(2,4-dichloro-phenyl)-4,5-dihydro-1H-pyrazole-3-carboxylic acid cycloheptylamide] | 28.1 | 3.2 |
| CCCCNC(=O)C1=NN(c2ccc(Cl)cc2Cl)C(c2ccc(Cl)cc2)C1 (centres unmarked) [Example 72, 5-(4-Chloro-phenyl)-1-(2,4-dichloro-phenyl)-4,5-dihydro-1H-pyrazole-3-carboxylic acid butylamide] | 19.6 | −10.2 |
